Laboratory results taken from patent US20230348467A1, “Heteroaryl Derivative, Preparation Method Therefor, And Use Thereof” (Zhejiang Hisun Pharmaceutical Co., Ltd., priority 2020, published 2023).

Legend:
[1] = target: recombinant human full-length SHP2 (Homo sapiens (Human), UniProt Q06124); assay: Allosteric inhibition of full-length SHP2 enzyme (DiFMUP fluorescence); assay type: biochemical; details: full-length SHP2 0.5 nM, activating peptide 0.5 uM, DiFMUP substrate
Excerpt: The following method was used to determine the inhibition degrees of the compounds of the present invention on the activity of recombinant human full-length SHP2 in vitro. SHP2 was allosterically activated by the binding of di-tyrosyl-phosphorylated peptide to a Src homologous 2(SH2) domain of SHP2. An activation step of the latter leads to the self-inhibitory interface release of SHP2, and then activates SHP2 protein tyrosine phosphatase (PTP), which might be used for substrate recognition and reaction catalysis.
The experimental process was briefly described as follows: Test compounds were first dissolved in DMSO to prepare storage solutions. […] Then, the compounds to be tested were added in a concentration range of 0.00004-10 uM and incubated at 25° C. for 60 minutes. Then DiFMUP (Thermo, D6567) was added in the reaction and incubated at 25° C. for 30 minutes. After incubation, readings were taken using a microplate reader (BMG) with excitation and emission wavelengths of 340 nm and 450 nm, respectively.

[2] = system: NCI-H23 cells (containing KRAS G12C mutation); assay: Inhibition of NCI-H23 cell proliferation (CellTiter-Glo); assay type: cell-based; details: Homo sapiens, 120 hours culture
Protocol: (§1) The following method was used to determine the effects of the compounds of the present invention on NCI-H23 cell proliferation. NCI-H23 cells (containing KRAS G12C mutation) were purchased from Cell Resource Center of Shanghai Institutes for Biological Sciences, Chinese Academy of Sciences, and cultured in RPMI 1640 mediums containing 10% fetal bovine serum, 100 U penicillin, 100 μg/mL streptomycin and 1 mM Sodium Pyruvate. The activities of the cells were determined by CellTiter-Glo® Luminescent Cell Viability Assay kit (Promega, article number: G7573).
(§2) The experimental method was operated according to the steps in the kit instruction, and was briefly described as follows: test compounds were first dissolved in DMSO to prepare storage solutions of 10 mM, and then diluted in mediums, prepared as test samples. The final concentrations of the test compounds were 10,000 nM to 1.52 nM. The cells in logarithmic phase were inoculated in a 96-well cell culture plate with 1,000 cells per well, after cultured overnight in 5% CO2 incubator at 37° C., the test compounds were added to the incubator to continue the culture for 120 hours. After the culture, 50 μL of CellTiter-Glo detection solution was added to each well, shaken for 5 minutes, and then stood for 10 minutes. Then, a Luminescence mode was used to read the luminescence values of each well of the samples on a microplate reader. Compared with the numerical value of a control group (0.3% DMSO), the percentage inhibition rates of the compounds at each concentration were calculated, and the IC50 values of the compounds inhibiting cell proliferation were obtained by performing nonlinear regression analysis with logarithmic values of the compound concentration—inhibition rate by GraphPad Prism 5 software, which was shown in Table 2.

[3] = system: NCI-H358 cells (containing KRAS G12C mutation); assay: Inhibition of NCI-H358 cell proliferation (CellTiter-Glo); assay type: cell-based; details: Homo sapiens, NCI-H358, 120 h, read-out: IC50(nM)/NCI-H358
Protocol: as §1, with “NCI-H358” for “NCI-H23”
as §2, with “of the” for “of a”, “Table 3.” for “Table 2.”

[4] = Pharmacokinetic test of mice, intragastric (Test Example 5); assay type: in vivo; details: ICR mice, PO, 5 mg/kg
Excerpt: ICR mice were used as test animals, and LC/MS/MS methods was used to determine the drug concentrations at different moments in plasma of mice administered by intragastric injectiion with the compound 27 of the present invention, and to study the pharmacokinetic characteristics of the compound of the present invention in mice. An appropriate amount of drug compound 27 was weighed, added with an appropriate amount of sodium carboxymethylcellulose (CMC-Na, containing 0.5% Tween 80), vortexed, and ultrasonically prepared into 0.5 mg/kg suspension. The ICR mice in the intragastric group of each compound to be tested (9 mice in each group) were fasted overnight and then administered by intragastric injection (PO, administration dose of the compound 27 was 5 mg/kg, and administration volume of the compound 27 was 10 mL/kg), and ate 4 hours after administration. About 0.2 mL of blood was collected via jugular vein before administration and 0.083 hour, 0.25 hour, 0.5 hour, 1 hour, 2 hours, 4 hours, 8 hours, 12 hours and 24 hours after administration, and heparin sodium was used for anticoagulation. The collected blood samples were placed on ice, and plasma was separated by centrifugation (centrifugation condition: 1,500 g, 10 minutes). The collected plasma samples were stored at −40° C. to −20° C. before analysis. LC-MS/MS was used to determine the content of the compound to be tested in mouse plasma after intragastric administration.

[5] = system: NCI-H358 subcutaneous transplanted tumors; assay: Growth inhibition of subcutaneous transplanted NCI-H358 tumors in BALB/c nude mice; assay type: in vivo
Protocol: To evaluate antitumor effects and safety of the compounds of Example 27 in an animal model of BALB/c nude mice with subcutaneous transplanted NCI-H358 cell lines
An approximate amount of the compound of Example 27 was weighed, added with an approximate amount of DMA (dimethylacetamide) to fully dissolve the compound, then added with Solutol HS 15 and Saline (DMA: Solutol HS 15: Saline=5:10:85 (v/v/v)) in turn, and mixed evenly by vortex, and the configuration concentration was 3 mg/mL.
BALB/c nude mice, female, 6-7 weeks old (the age of mice when tumor cells were inoculated), 12 mice, purchased from Jiangsu GemPharmatech.
NCI-H358 cells were cultured in RPMI 1640 mediums containing 10% fetal bovine serum, 1% sodium pyruvate and 1% glutamine. NCI-H358 cells in exponential growth period were collected, and resuspend in PBS to a suitable concentration for subcutaneous tumor inoculation in nude mice.
12 female BALB/c nude mice were subcutaneously inoculated with about 3×10^6 NCI-H358 cells on the right sides of their backs. When the average volume of tumors reaches about 100 mm^3 to 200 mm^3, the mice were randomly divided according to tumor sizes with 6 mice in each group. The animals in each group were given the subjects once a day (qd) according to the animal body weights at a fixed time every day according to the table below, administered orally (po) for 10 consecutive days, and the daily body weights were recorded.
After tumor inoculation, routine monitoring included the effects of tumor growth and treatment on the normal behaviors of the animals, specifically the mobility, feeding and drinking, weight gain or loss, eyes, coat and other abnormalities of the experimental animals.
(1) TV (tumor volume)=½×a×b^2, wherein a and b represent the length and the width of the tumor respectively;
(2) RTV (relative tumor volume)=Vt/V0, wherein V0 is the tumor volume measured at the time of grouping administration (i.e., d0), and Vt is the tumor volume at each measurement;
(3) Relative tumor proliferation rate T/C (%)=TRTV/CRTV×100%, wherein TRTV is the RTV of the treatment group and CRTV is the RTV of the control group;

[6] = Pharmacokinetic test in ICR mice, intragastric (Test Example 4); assay type: in vivo; details: PO
Excerpt: ICR mice were used as test animals, and LC/MS/MS methods was used to determine the drug concentrations at different moments in plasma of mice administered by intragastric injection with the compound 5 and the compound 6 of the present invention, and to study the pharmacokinetic characteristics of the compounds of the present invention in mice. An appropriate amount of drug was weighed, added with an appropriate amount of sodium carboxymethylcellulose (CMC-Na, containing 0.5% Tween 80), vortexed, and ultrasonically prepared into 1 mg/kg suspension. The ICR mice in the intragastric group of each compound to be tested (9 mice in each group) were fasted overnight and then administered by intragastric injection (PO, […], and administration volume of 10 mL/kg), and ate 4 hours after administration. About 0.2 mL of blood was collected via jugular vein before administration and 0.083 hour, 0.25 hour, 0.5 hour, 1 hour, 2 hours, 4 hours, 8 hours and 24 hours after administration, and heparin sodium was used for anticoagulation. The collected blood samples were placed on ice, and plasma was separated by centrifugation (centrifugation condition: 1,500 g, 10 minutes). The collected plasma samples were stored at −40° C. to −20° C. before analysis. LC-MS/MS was used to determine the contents of the compounds to be tested in mouse plasma after intragastric administration.

[7] = Day 10, 30 mg/kg po qd for 10 days

recombinant human full-length SHP2, sequence (Q06124 whole entry): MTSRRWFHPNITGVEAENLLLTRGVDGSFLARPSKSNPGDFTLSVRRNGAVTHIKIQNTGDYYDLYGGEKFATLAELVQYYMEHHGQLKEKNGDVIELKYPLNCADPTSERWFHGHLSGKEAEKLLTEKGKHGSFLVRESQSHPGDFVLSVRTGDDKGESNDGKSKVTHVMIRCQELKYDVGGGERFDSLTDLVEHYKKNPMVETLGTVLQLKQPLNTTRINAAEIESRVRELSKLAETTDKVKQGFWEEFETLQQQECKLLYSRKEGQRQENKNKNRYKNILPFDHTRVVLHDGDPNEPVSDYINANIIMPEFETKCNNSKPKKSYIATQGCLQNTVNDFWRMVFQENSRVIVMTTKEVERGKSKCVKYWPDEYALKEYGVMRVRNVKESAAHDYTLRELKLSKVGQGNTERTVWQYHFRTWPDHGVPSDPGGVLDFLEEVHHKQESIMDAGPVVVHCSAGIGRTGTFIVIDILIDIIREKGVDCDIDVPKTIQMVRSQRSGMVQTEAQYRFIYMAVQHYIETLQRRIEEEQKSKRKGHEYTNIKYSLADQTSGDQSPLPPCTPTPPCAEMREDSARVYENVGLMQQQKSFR

| Compound | IC50 [1] [nM] | IC50 [2] [nM] | IC50 [3] [nM] | Pharmacokinetic properties (conclusion in words) [4] | AUC(0-inf) ([4]; mouse, plasma, read-out: Area under curve AUC0-∞) [ng·h/mL] | Cmax ([4]; mouse, plasma, read-out: Blood concentration Cmax) [ng/mL] | Tmax ([4]; mouse, plasma, read-out: Peak time Tmax) [h] | Growth inhibition effect on NCI-H358 tumor-bearing mice (in words) ([5]; 30 mg/kg) | Body weight change ([5]; 30 mg/kg po qd for 10 days) | Tumor volume (mm^3, mean value ± standard error) Day 0 ([5]; Day 0 (at grouping), 30 mg/kg po qd group) [mm^3] | TGI % Day 10 [5, 7] [%] | Tumor volume (mm^3, mean value ± standard error) Day 10 [5, 7] [mm^3] | Pharmacokinetic properties (conclusion in words) [6] | AUC(0-inf) ([6]; mouse, 10 mg/kg per table (method text says 1 mg/kg), plasma, read-out: Area under curve AUC0-∞) [ng·h/mL] | Cmax ([6]; mouse, 10 mg/kg per table (method text says 1 mg/kg), plasma, read-out: Blood concentration Cmax) [ng/mL] |
| --- | --- | --- | --- | --- | --- | --- | --- | --- | --- | --- | --- | --- | --- | --- | --- |
| NC(=O)c1nc(N2CCC(N)(c3ccccc3)CC2)nc2[nH]nc(-c3ccnc(Cl)c3Cl)c12 [Example 27, 6-(4-amino-4-phenylpiperidin-1-yl)-3-(2,3-dichloropyridin-4-yl)-1H-pyrazolo[3,4-d]pyrimidine-4-carboxamide] | 7 | 167 | 37 | good pharmacokinetic properties | 2720 | 285 | 8 | obvious growth inhibition effects | no obvious change in body weight | 138 ± 14 | 55.6 | 155 ± 22 |  |  |  |
| NC(=O)c1nc(N2CCC3(CC2)Cc2ccccc2[C@H]3N)nc2[nH]nc(-c3cccc(Cl)c3Cl)c12 [Example 5, (S)-6-(1-amino-1,3-dihydrospiro[indene-2,4′-piperidin]-1′-yl)-3-(2,3-dichlorophenyl)-1H-pyrazolo[3,4-d]pyrimidine-4-carboxamide] | 1 | 143 | 27 |  |  |  |  |  |  |  |  |  | good pharmacokinetic properties | 31300 | 2110 |
